Measured values reported in US9815847B2 (Icahn School of Medicine at Mount Sinai, priority 2013, dated 2017).

Tests used:
HCT-15 = experiment: Cytotoxicity assay, dose response end point; type: cell-based; conditions: Homo sapiens; HCT-15, Dukes' type C colorectal adenocarcinoma; 96 h
Experimental: (§1) The following tumor cell lines were tested using a dose response end point assay system with compound (8h). The cells were grown in either DMEM or RPMI supplemented with 10% fetal bovine serum and 1 unit/mL Penicillin-Streptomycin solution. The tumor cells were plated into 6-well dishes at a cell density of 1.0×10^5 cells/mL/well and the test compound was added 24 h. later at various concentrations. Cell counts were determined from duplicate wells after 96 h. of treatment. The total number of viable cells was determined by trypan blue exclusion.

U937 = experiment: Cytotoxicity assay, dose response end point; type: cell-based; conditions: Homo sapiens, U-937; U937, histiocytic lymphoma; 96 h
Experimental: as §1

BXPC-3 = experiment: Cytotoxicity assay, dose response end point; type: cell-based; conditions: Homo sapiens; BXPC-3, pancreatic adenocarcinoma; 96 h
Experimental: as §1

ABL1 (E255K) = target: T1, ABL1 (E255K) (Homo sapiens, UniProt P00519, E255K); experiment: Inhibition of ABL mutants, kinase assay; type: biochemical; conditions: 10 μM ATP; 5-dose IC50 mode
T1 construct: purchased Reaction Biology Corporation
Experimental: (§2) Kinase assays were performed at Reaction Biology Corporation. To a freshly prepared buffer solution was added the target kinase at a concentration of […]. The contents were mixed gently, and then compound (8h) dissolved in DMSO was added to the reaction mixture in the appropriate concentration. The mixture was incubated at room temperature for 30 min. prior to addition of ATP to initiate the reaction. Compound (8h) was tested in a 5-dose IC50 mode with 10-fold serial dilutions starting at 10 μM. Staurosporine was used as a control compound in a 10-dose IC50 mode with 3-fold serial dilutions starting at 20 μM. Reaction was carried out at 10 μM ATP concentration.

ABL1 (T315I) = target: T2, ABL1 (T315I) (Homo sapiens, UniProt P00519, T315I); experiment: Inhibition of ABL mutants, kinase assay; type: biochemical; conditions: 10 μM ATP; 5-dose IC50 mode
T2 construct: purchased Reaction Biology Corporation
Experimental: as §2

ABL1 (H396P) = target: T3, ABL1 (H396P) (Homo sapiens, UniProt P00519, H396P); experiment: Inhibition of ABL mutants, kinase assay; type: biochemical; conditions: 10 μM ATP; 5-dose IC50 mode
T3 construct: purchased Reaction Biology Corporation
Experimental: as §2

ABL1 (Q252H) = target: T4, ABL1 (Q252H) (Homo sapiens, UniProt P00519, Q252H); experiment: Inhibition of ABL mutants, kinase assay; type: biochemical; conditions: 10 μM ATP; 5-dose IC50 mode
T4 construct: purchased Reaction Biology Corporation
Experimental: as §2

ABL1 (Y253F) = target: T5, ABL1 (Y253F) (Homo sapiens, UniProt P00519, Y253F); experiment: Inhibition of ABL mutants, kinase assay; type: biochemical; conditions: 10 μM ATP; 5-dose IC50 mode
T5 construct: purchased Reaction Biology Corporation
Experimental: as §2

ABL1 (M351T) = target: T6, ABL1 (M351T) (Homo sapiens, UniProt P00519, M351T); experiment: Inhibition of ABL mutants, kinase assay; type: biochemical; conditions: 10 μM ATP; 5-dose IC50 mode
T6 construct: purchased Reaction Biology Corporation
Experimental: as §2

ABL1 (G250E) = target: T7, ABL1 (G250E) (Homo sapiens, UniProt P00519, G250E); experiment: Inhibition of ABL mutants, kinase assay; type: biochemical; conditions: 10 μM ATP; 5-dose IC50 mode
T7 construct: purchased Reaction Biology Corporation
Experimental: as §2

ABL2/ARG = target: T8, ABL2/ARG (Homo sapiens, UniProt P42684); experiment: Inhibition of ABL mutants, kinase assay; type: biochemical; conditions: 10 μM ATP; 5-dose IC50 mode
T8 construct: purchased Reaction Biology Corporation
Experimental: as §2

T8 sequence (P42684 whole entry): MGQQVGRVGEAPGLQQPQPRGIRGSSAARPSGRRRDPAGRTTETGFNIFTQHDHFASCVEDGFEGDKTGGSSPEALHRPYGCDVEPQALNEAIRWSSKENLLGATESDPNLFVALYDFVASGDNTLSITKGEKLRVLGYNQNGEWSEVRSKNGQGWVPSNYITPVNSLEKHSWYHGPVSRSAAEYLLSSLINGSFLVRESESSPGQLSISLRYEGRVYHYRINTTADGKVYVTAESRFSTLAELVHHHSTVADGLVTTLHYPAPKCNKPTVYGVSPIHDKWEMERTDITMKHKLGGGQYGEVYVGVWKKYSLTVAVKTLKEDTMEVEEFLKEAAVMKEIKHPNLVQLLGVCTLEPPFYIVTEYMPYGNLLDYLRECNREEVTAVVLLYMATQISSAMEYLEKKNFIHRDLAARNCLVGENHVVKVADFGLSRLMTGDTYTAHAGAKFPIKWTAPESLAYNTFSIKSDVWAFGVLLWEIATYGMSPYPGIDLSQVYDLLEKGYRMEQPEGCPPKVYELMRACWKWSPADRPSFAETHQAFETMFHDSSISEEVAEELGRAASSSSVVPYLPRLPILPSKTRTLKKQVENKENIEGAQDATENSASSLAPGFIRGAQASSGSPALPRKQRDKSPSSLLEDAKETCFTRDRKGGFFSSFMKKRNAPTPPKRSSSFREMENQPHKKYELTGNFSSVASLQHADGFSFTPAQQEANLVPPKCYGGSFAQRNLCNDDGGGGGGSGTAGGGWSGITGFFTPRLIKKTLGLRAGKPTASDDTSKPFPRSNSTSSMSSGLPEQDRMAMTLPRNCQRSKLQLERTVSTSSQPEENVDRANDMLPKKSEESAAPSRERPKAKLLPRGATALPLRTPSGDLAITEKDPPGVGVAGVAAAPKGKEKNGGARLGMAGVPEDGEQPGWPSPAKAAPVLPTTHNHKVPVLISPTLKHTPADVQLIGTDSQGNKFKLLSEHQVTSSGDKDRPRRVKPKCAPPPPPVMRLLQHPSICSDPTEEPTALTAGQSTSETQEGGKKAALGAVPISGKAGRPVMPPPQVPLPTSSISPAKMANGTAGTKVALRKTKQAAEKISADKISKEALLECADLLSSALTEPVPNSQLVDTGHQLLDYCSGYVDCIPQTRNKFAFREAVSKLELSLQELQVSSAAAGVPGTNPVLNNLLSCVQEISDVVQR

IC50 (ABL1 (E255K)): < 100 nM | IC50 (ABL1 (T315I)): < 100 nM | IC50 (ABL1 (H396P)): < 100 nM | IC50 (ABL1 (Q252H)): < 100 nM | IC50 (ABL1 (Y253F)): < 100 nM | IC50 (ABL1 (M351T)): < 100 nM | IC50 (ABL1 (G250E)): < 100 nM | IC50 (ABL2/ARG): < 100 nM
Compound: CN1CCN(c2ccc(Nc3ncc(/C=C/C#N)c(NC4CCCC4)n3)cc2)CC1 [Compound 8h, 3-{4-Cyclopentylamino-2-[4-(4-methylpiperazin-1-yl)phenylamino]pyrimidin-5-yl}acrylonitrile]
GI50 (HCT-15): 30 nM | GI50 (U937): 100 nM | GI50 (BXPC-3): 100 nM
